From patent US7115624B1, “Method of inhibiting protein tyrosine phosphatase 1B and/or T-cell protein tyrosine phosphatase 4 and/or other PTPases with an Asp residue at position 48” (Novo Nordisk A/S, priority 1999, dated 2006)
Substitutions are numbered along the chain they refer to. Like-named read-outs stand apart in the source and are kept apart here.

Experiments:
Type in all cases: biochemical
PTPH1 = target: T1, PTPH1 (Homo sapiens, UniProt P26045); test: PTPase inhibition, p-nitrophenyl phosphate substrate, Ki; conditions: pH 7.0; wt (Table 4)
T1 sequence (P26045 646-901 limits assumed): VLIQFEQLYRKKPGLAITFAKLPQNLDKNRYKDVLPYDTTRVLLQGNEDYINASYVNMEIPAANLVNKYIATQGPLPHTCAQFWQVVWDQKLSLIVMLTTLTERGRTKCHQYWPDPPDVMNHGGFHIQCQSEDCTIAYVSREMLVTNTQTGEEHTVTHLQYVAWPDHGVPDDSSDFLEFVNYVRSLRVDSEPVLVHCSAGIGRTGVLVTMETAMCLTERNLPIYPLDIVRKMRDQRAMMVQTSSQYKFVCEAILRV
Excerpt: (§1) To test directly, whether the above compound was addressing the proposed region of PTP1B, Compound N was subjected to detailed enzyme kinetic analyses using a set of wildtype (wt) and mutant PTPs. Two enzymes, PTPα and PTPH1, were chosen as representatives for PTPs with bulky side chains in the 259 position. Using a combination of wt and PTP mutants it has previously been shown that Gln259 in PTPα, in addition to its direct effect, also indirectly influences the binding of inhibitors and substrates, most likely due to a negative influence on the rotational freedom of the side chain of Gln262 (Peters et al., J. Biol. Chem. 275: 18201–18209 (2000)). As described above, selectivity can be obtained by introducing a basic nitrogen into 2-(oxalylamino)-4,5,6,7-tetrahydrobenzo[b]thiophene-3-carboxylic acid that causes attraction in PTP1B due to salt bridge formation to Asp48 and repulsion against PTPs with an asparagine in the 48 position, such as PTPα. To analyze if the current approach based on steric hindrance is generally applicable, it was decided to include a PTP with an aspartic acid in position 48. PTPH1, which like PTP1B is an intracellular enzyme with one domain only, was selected for these studies. The results of these studies are shown below (Table 4).
(§2) The assay conditions are as follows.

PTPα [1] = target: T2, PTPα (Homo sapiens, UniProt P18433); test: as above; conditions: pH 7.0; wt (Table 4)
T2 construct: PTPα D1
Excerpt: as §1, §2

PTPε = target: T3, PTPε (Homo sapiens, UniProt P23469); test: as above; conditions: pH 7.0 (Table 5); read-out: Ki values, PTPε
T3 construct: PTPε D1
Description: (§3) The assay conditions are as follows. Appropriate concentrations of the compounds of the invention (e.g., 0.1 to 100 μM) are added to the reaction mixtures containing different concentrations of the substrate, p-nitrophenyl phosphate (range: 0.16 to 10 mM—final assay concentration). The buffer used was 50 mM HEPES pH 7.0, 100 mM sodium chloride, 0.1% (w/v) bovine serum albumin, 5 mM glutathione, and 1 mM EDTA. The reaction was started by addition of the enzyme and carried out in microtiter plates at 25° C. for 60 minutes. The reactions are stopped by addition of NaOH. […] The data are analyzed using nonlinear regression fit to classical Michaelis Menten enzyme kinetic models. Inhibition is expressed as Ki values in μM.

PTPβ = PTPβ (Homo sapiens, UniProt P23467); test: as above; conditions: pH 7.0 (Table 5); read-out: Ki values, PTPβ
Description: as §3

LAR = target: T4, LAR (Homo sapiens, UniProt P10586); test: as above; conditions: pH 7.0 (Table 5); read-out: Ki values, LAR
T4 sequence (P10586 1285-1907 limits assumed): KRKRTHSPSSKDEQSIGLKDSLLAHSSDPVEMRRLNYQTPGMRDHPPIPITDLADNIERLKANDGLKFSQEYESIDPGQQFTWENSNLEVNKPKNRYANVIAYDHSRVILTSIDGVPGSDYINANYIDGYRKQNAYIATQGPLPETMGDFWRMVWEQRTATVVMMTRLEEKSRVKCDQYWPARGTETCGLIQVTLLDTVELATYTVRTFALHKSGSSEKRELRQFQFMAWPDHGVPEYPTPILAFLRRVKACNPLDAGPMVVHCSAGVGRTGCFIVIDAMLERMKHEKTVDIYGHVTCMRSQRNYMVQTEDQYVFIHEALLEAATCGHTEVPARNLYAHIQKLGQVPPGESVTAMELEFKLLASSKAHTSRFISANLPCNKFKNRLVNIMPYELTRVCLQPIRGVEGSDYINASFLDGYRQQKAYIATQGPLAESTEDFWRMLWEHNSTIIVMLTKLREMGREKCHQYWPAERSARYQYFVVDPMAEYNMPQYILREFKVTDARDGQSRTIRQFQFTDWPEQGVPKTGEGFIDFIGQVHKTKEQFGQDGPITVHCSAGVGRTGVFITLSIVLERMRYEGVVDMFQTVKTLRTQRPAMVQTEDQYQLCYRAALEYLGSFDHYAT
Description: The compounds are evaluated for biological activity with a truncated form of PTP1B (corresponding to the first 321 amino acids), which was expressed in E. coli and purified to apparent homogeneity using published procedures well-known to those skilled in the art. The enzyme reactions are carried out using standard conditions essentially as described by Burke et al. (Biochemistry 35; 15989–15996 (1996)) incorporated by reference. […] Appropriate concentrations of the compounds of the invention (e.g., 0.1 to 100 μM) are added to the reaction mixtures containing different concentrations of the substrate, p-nitrophenyl phosphate (range: 0.16 to 10 mM—final assay concentration). The buffer used was 50 mM HEPES pH 7.0, 100 mM sodium chloride, 0.1% (w/v) bovine serum albumin, 5 mM glutathione, and 1 mM EDTA. The reaction was started by addition of the enzyme and carried out in microtiter plates at 25° C. for 60 minutes. The reactions are stopped by addition of NaOH. The enzyme activity was determined by measurement of the absorbance at 405 nm with appropriate corrections for absorbance at 405 nm of the compounds and p-nitrophenyl phosphate. The data are analyzed using nonlinear regression fit to classical Michaelis Menten enzyme kinetic models. Inhibition is expressed as Ki values in μM.

PTPα Q259G = PTPα Q259G (Homo sapiens, UniProt P18433, Q483G); test: Enzyme kinetic analysis with mutant PTPs, Ki; conditions: pH 7.0
Description: The compounds are evaluated for biological activity with a truncated form of PTP1B (corresponding to the first 321 amino acids), which was expressed in E. coli and purified to apparent homogeneity using published procedures well-known to those skilled in the art. The enzyme reactions are carried out using standard conditions essentially as described by Burke et al. (Biochemistry 35; 15989–15996 (1996)) incorporated by reference. The assay conditions are as follows. Appropriate concentrations of the compounds of the invention (e.g., 0.1 to 100 μM) are added to the reaction mixtures containing different concentrations of the substrate, p-nitrophenyl phosphate (range: 0.16 to 10 mM—final assay concentration). The buffer used was 50 mM HEPES pH 7.0, 100 mM sodium chloride, 0.1% (w/v) bovine serum albumin, 5 mM glutathione, and 1 mM EDTA. […] The enzyme activity was determined by measurement of the absorbance at 405 nm with appropriate corrections for absorbance at 405 nm of the compounds and p-nitrophenyl phosphate. The data are analyzed using nonlinear regression fit to classical Michaelis Menten enzyme kinetic models. Inhibition is expressed as Ki values in μM.

PTP1B G259M = target: T5, PTP1B G259M (Homo sapiens, UniProt P18031, G259M); test: Enzyme kinetic analysis with mutant PTPs, Ki; conditions: pH 7.0
T5 sequence (P18031 1-435 G259M): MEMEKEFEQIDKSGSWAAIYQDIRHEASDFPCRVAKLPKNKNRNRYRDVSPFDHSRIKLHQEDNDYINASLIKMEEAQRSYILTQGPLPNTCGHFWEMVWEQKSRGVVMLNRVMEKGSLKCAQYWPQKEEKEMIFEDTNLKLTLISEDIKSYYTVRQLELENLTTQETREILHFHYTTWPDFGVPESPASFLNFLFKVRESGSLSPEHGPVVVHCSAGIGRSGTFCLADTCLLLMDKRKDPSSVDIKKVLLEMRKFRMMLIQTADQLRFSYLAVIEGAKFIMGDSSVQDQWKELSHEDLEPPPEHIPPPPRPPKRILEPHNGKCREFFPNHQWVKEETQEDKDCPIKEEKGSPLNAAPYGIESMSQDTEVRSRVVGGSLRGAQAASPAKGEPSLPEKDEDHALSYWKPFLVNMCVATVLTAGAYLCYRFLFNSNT
Excerpt: as §1, §2

PTP1B G259Q = target: T6, PTP1B G259Q (Homo sapiens, UniProt P18031, G259Q); test: Enzyme kinetic analysis with mutant PTPs, Ki; conditions: pH 7.0
T6 sequence (P18031 1-435 G259Q): T5 sequence (P18031 1-435 G259M) with M259Q
Excerpt: as §1, §2

PTPα [2] = target: T2, PTPα; test: PTPase inhibition, p-nitrophenyl phosphate substrate, Ki; conditions: pH 7.0 (Table 5); read-out: Ki values, PTPα

T2 sequence (P18433 241-501 limits assumed): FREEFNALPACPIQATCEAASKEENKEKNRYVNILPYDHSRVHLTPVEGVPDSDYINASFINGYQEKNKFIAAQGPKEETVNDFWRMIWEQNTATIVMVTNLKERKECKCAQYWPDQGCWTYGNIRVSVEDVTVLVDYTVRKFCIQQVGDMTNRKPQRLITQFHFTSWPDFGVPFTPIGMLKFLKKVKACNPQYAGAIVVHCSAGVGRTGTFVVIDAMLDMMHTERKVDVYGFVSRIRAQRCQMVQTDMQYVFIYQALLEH
T3 sequence (P23469 135-394 limits assumed): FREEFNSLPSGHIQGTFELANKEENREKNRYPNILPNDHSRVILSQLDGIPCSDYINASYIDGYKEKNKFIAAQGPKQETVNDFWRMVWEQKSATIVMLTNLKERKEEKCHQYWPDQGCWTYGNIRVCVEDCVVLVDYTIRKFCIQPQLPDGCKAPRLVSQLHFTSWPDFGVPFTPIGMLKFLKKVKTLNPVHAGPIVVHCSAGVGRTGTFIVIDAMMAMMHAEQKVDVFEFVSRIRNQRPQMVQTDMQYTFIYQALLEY
PTPβ, sequence (P23467 1703-1963 limits assumed): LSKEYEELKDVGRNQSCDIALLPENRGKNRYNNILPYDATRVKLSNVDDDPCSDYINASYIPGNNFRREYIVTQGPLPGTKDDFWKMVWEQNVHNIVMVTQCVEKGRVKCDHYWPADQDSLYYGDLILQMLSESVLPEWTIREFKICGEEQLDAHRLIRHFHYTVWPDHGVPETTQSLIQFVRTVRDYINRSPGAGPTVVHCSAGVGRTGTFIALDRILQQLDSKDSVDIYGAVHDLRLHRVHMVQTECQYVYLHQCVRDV
PTPα Q259G, sequence (P18433 211-512 Q483G limits assumed): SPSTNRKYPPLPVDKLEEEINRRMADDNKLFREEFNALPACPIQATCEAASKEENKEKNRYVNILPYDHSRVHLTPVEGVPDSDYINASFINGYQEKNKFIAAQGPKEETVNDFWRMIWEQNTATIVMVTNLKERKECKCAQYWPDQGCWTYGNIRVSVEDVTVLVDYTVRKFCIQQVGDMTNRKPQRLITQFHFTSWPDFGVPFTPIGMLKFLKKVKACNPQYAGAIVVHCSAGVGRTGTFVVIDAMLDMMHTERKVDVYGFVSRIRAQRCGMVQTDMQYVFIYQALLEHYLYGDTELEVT

Q: `O=C(O)C(=O)Nc1sc2c(c1C(=O)O)CCOC2COC1=NS(=O)(=O)c2ccccc21` (stereo not drawn) [Compound N, 7-(1,1-dioxo-1H-benzo[d]isothiazol-3-yloxymethyl)-2-(oxalyl-amino)-4,7-dihyd ro-5H-thieno[2,3-c]pyran-3-carboxylic acid] was tested. Which Ki (PTPH1) did it give?
A: 55 µM

Q: And the Ki (PTPα [1])?
A: > 500 µM

Q: What about the Ki (PTPε) of the same compound?
A: 460 µM

Q: What about the Ki (PTPβ) of the same compound?
A: 15 µM

Q: And the Ki (LAR)?
A: 120 µM

Q: And the Ki (PTPα Q259G)?
A: 70 µM

Q: And the Ki (PTP1B G259M)?
A: 55 µM

Q: And the Ki (PTP1B G259Q)?
A: 65 µM

Q: And the Ki (PTPα [2])?
A: 700 µM
